ChEMBL document CHEMBL4806969, “Modulators of mas-related g-protein receptor x4 and related products and methods” (2020)

Molecular target: Mas-related G-protein coupled receptor member X4 (Homo sapiens, UniProt Q96LA9)
Assay: Antagonist activity at human MRGPRX4 expressed in HEK cells incubated in dark for 1 hr at 37 degree C and then incubated for 30 mins at room temperature in presence of […] bilirubin by HTRF assay
Assay type: functional, cell-based
Settings: not given

Sequence of Mas-related G-protein coupled receptor member X4 (Q96LA9 whole entry): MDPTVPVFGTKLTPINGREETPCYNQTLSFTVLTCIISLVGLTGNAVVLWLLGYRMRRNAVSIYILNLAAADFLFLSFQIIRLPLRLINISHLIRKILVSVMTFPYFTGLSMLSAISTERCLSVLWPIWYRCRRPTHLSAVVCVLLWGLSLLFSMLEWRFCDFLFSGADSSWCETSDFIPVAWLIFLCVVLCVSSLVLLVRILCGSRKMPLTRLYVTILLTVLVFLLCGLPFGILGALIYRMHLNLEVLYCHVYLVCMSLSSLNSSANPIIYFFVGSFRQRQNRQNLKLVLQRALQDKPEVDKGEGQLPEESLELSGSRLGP

Question: For CC(=O)c1ccc(OCc2cccc(C(=O)O)c2)cc1, which IC50 is on record?
Answer: > 2500 nM

Question: Which IC50 does the source give for CCCc1cc(COc2ccc(C(F)(F)F)cc2Cl)nc(C(=O)O)c1 here?
Answer: < 100 nM

Question: With O=C(O)c1cccc(COc2ccc3ccccc3c2Cl)c1F as the compound, how does the IC50 read?
Answer: < 100 nM

Question: For O=C(O)c1cccc(COc2ccc(OC(F)(F)F)c(Cl)c2)n1, which IC50 is on record?
Answer: < 100 nM

Question: With O=C(O)c1cccc(COc2ccc3ccccc3c2)n1 as the compound, how does the IC50 read?
Answer: < 100 nM

Question: For O=C(O)c1cc(Cl)cc(COc2ccc(C(F)(F)F)cc2Cl)c1, which IC50 is on record?
Answer: < 100 nM

Question: With Cc1cc(COc2ccc(C(F)(F)F)cc2Cl)cc(C(=O)O)c1 as the compound, how does the IC50 read?
Answer: < 100 nM

Question: With Cc1cc(COc2ccc3ccccc3c2)nc(C(=O)O)c1 as the compound, how does the IC50 read?
Answer: < 100 nM

Question: Which IC50 does the source give for O=C(O)c1cc(Br)cc(COc2ccc(C(F)(F)F)cc2Cl)c1 here?
Answer: < 100 nM

Question: Which IC50 does the source give for O=C(O)c1cccc(COc2ccc(Cl)c(Cl)c2F)c1 here?
Answer: < 100 nM

Question: For Cc1cc(Cl)ccc1OCc1cccc(-c2nnn[nH]2)c1, which IC50 is on record?
Answer: < 100 nM

Question: For Cc1cc(COc2ccc(C(F)(F)F)cc2C)cc(C(=O)O)c1, which IC50 is on record?
Answer: < 100 nM

Question: For FC(F)(F)c1ccc(OCc2cccc(-c3nnn[nH]3)n2)c(Cl)c1, which IC50 is on record?
Answer: < 100 nM

Question: Which IC50 does the source give for O=C(O)c1cccc(COc2ccc3c(c2)CCC3=O)c1 here?
Answer: > 2500 nM

Question: Which IC50 does the source give for O=C(O)c1cc(Br)cc(COc2ccc(C(F)(F)F)cc2Cl)n1 here?
Answer: < 100 nM

Question: For FC(F)(F)Oc1ccc(OCc2cccc(-c3nnn[nH]3)c2)cc1Cl, which IC50 is on record?
Answer: < 100 nM

Question: With O=C(O)Cc1cccc(COc2ccc(Cl)cc2Cl)c1 as the compound, how does the IC50 read?
Answer: > 2500 nM

Question: For Cc1cc(COc2ccc3ccccc3c2)cc(C(=O)O)c1, which IC50 is on record?
Answer: < 100 nM

Question: Which IC50 does the source give for Cc1cc(COc2ccc(C(F)(F)F)c(Cl)c2)cc(C(=O)O)c1 here?
Answer: < 100 nM

Question: For COC(=O)c1cccc(COc2ccc3scnc3c2)c1, which IC50 is on record?
Answer: > 2500 nM

Question: Which IC50 does the source give for Cc1cc(C(F)(F)F)ccc1OCc1cccc(C(=O)O)n1 here?
Answer: < 100 nM

Question: With O=C(O)c1cc(COc2ccc(C(F)(F)F)cc2Cl)ccc1F as the compound, how does the IC50 read?
Answer: < 100 nM

Question: Which IC50 does the source give for O=C(O)c1cccc(COc2cccc3c2OC(F)(F)O3)c1 here?
Answer: > 2500 nM

Question: Which IC50 does the source give for FC(F)(F)Oc1ccc(OCc2cccc(-c3nnn[nH]3)c2)c(Cl)c1 here?
Answer: < 100 nM

Question: For O=C(O)c1cc(F)cc(COc2ccc(Cl)c(Cl)c2Cl)c1, which IC50 is on record?
Answer: < 100 nM

Question: Which IC50 does the source give for Cc1cc(COc2ccc(OC(F)(F)F)cc2Cl)cc(C(=O)O)c1 here?
Answer: < 100 nM

Question: For O=C(O)c1cccc(COc2ccc(F)cc2Cl)c1, which IC50 is on record?
Answer: > 2500 nM

Question: Which IC50 does the source give for Fc1c(COc2ccc(C(F)(F)F)cc2Cl)cccc1-c1nnn[nH]1 here?
Answer: < 100 nM

Question: Which IC50 does the source give for O=C(O)c1cccc(COc2ccc3sccc3c2Cl)c1F here?
Answer: < 100 nM

Question: Which IC50 does the source give for O=C(O)c1cccc(COc2ccc(Oc3ccccc3)cc2)c1 here?
Answer: > 2500 nM

Question: With O=C(O)c1cccc(COc2ccc(C(F)(F)F)c(Cl)c2)c1F as the compound, how does the IC50 read?
Answer: < 100 nM

Question: With O=C(O)c1cccc(COc2ccccc2C(F)F)c1 as the compound, how does the IC50 read?
Answer: > 2500 nM

Question: With COC(=O)c1cccc(COc2ccc3ccccc3c2)n1 as the compound, how does the IC50 read?
Answer: < 100 nM

Question: Which IC50 does the source give for O=C(O)CNC(=O)c1cccc(COc2ccc(C(F)(F)F)cc2Cl)c1 here?
Answer: < 100 nM

Question: For O=C(O)c1cccc(COc2ccc3ccccc3c2)c1F, which IC50 is on record?
Answer: < 100 nM

Question: Which IC50 does the source give for O=C(O)c1cccc(COc2ccc(Cl)cc2C(F)(F)F)c1F here?
Answer: < 100 nM

Question: For N#Cc1ccc(OCc2cccc(C(=O)O)c2)cc1, which IC50 is on record?
Answer: > 2500 nM

Question: For O=C(O)c1cccc(COc2ccc(C(F)(F)F)cc2F)c1, which IC50 is on record?
Answer: < 100 nM

Question: With O=C(O)c1cccc(COc2ccccc2Cl)c1 as the compound, how does the IC50 read?
Answer: > 2500 nM

Question: With CC(C)c1ccccc1OCc1cccc(C(=O)O)c1 as the compound, how does the IC50 read?
Answer: > 2500 nM

Question: With O=C(O)c1cccc(COc2ccc(OC(F)(F)F)c(Cl)c2)c1 as the compound, how does the IC50 read?
Answer: < 100 nM

Question: For COC(=O)c1cccc(COc2ccc(C(F)(F)F)cc2Cl)n1, which IC50 is on record?
Answer: < 100 nM

Question: Which IC50 does the source give for O=C(O)c1cccc(COc2ccc(Cl)c(F)c2Cl)c1 here?
Answer: < 100 nM

Question: Which IC50 does the source give for CCc1cc(COc2ccc(Cl)c(Cl)c2Cl)nc(C(=O)O)c1 here?
Answer: < 100 nM

Question: With CC(Oc1ccc(C(F)(F)F)cc1Cl)c1cccc(C(=O)O)c1 (stereo not given) as the compound, how does the IC50 read?
Answer: < 100 nM

Question: With Cc1cc(OCc2cccc(C(=O)O)c2)ccc1OC(F)(F)F as the compound, how does the IC50 read?
Answer: > 2500 nM

Question: With O=C(O)c1cccc(COc2ccc(OC(F)(F)F)cc2Cl)n1 as the compound, how does the IC50 read?
Answer: < 100 nM

Question: Which IC50 does the source give for COCCCNC(=O)c1cccc(COc2ccc(C(F)(F)F)cc2Cl)c1 here?
Answer: < 100 nM

Question: With O=C(O)c1nc(COc2ccc(C(F)(F)F)c(Cl)c2)ccc1F as the compound, how does the IC50 read?
Answer: < 100 nM

Question: For Cc1noc(-c2cccc(COc3ccc(C(F)(F)F)cc3Cl)c2)n1, which IC50 is on record?
Answer: < 2500 nM

Question: For O=C(O)c1cccc(COc2ccc(C(F)(F)F)cc2Cl)c1F, which IC50 is on record?
Answer: < 100 nM

Question: With O=C(O)c1cccc(COc2ccc(C(F)(F)F)cc2)c1F as the compound, how does the IC50 read?
Answer: < 100 nM

Question: With N#Cc1cc(COc2ccc(C(F)(F)F)cc2Cl)nc(C(=O)O)c1 as the compound, how does the IC50 read?
Answer: < 100 nM

Question: Which IC50 does the source give for O=C(O)c1cccc(COc2ccc(C(F)F)cc2Cl)c1 here?
Answer: < 100 nM

Question: Which IC50 does the source give for COc1ccc(C(=O)O)cc1COc1ccc(Cl)cc1Cl here?
Answer: > 2500 nM

Question: Which IC50 does the source give for Cc1ccc(COc2ccc(Cl)cc2Cl)cc1C(=O)O here?
Answer: > 2500 nM

Question: For O=C(O)c1c(F)ccc(COc2ccc(C(F)(F)F)cc2Cl)c1F, which IC50 is on record?
Answer: < 100 nM

System: not listed separately
Assay: Half life in C57BL/6 mouse at 50 mg/kg, po measured upto 24 hrs by LC-MS/MS analysis
Assay type: ADME, organism-based
Settings: in vivo

Question: Which half-life does the source give for Cc1cc(COc2ccc(C(F)(F)F)cc2Cl)cc(C(=O)O)c1 here?
Answer: 4.6 h

Question: Which half-life does the source give for Cc1cc(COc2ccc(C(F)(F)F)cc2C)cc(C(=O)O)c1 here?
Answer: 3.6 h

Question: Which half-life does the source give for O=C(O)c1cc(COc2ccc(C(F)(F)F)cc2Cl)ccc1F here?
Answer: 4.7 h

Question: For O=C(O)c1cccc(COc2ccc(C(F)(F)F)cc2Cl)c1F, which half-life is on record?
Answer: 11.2 h

System: not listed separately
Assay: AUC in C57BL/6 mouse at 50 mg/kg, po measured upto 24 hrs by LC-MS/MS analysis
Assay type: ADME, organism-based
Set-up: route oral, dose 50 mg/kg, time <=24
Settings: in vivo

Question: For Cc1cc(COc2ccc(C(F)(F)F)cc2Cl)cc(C(=O)O)c1, which AUC at 24 h is on record?
Answer: 974 µM·h

Question: For Cc1cc(COc2ccc(C(F)(F)F)cc2C)cc(C(=O)O)c1, which AUC at 24 h is on record?
Answer: 572 µM·h

Question: With O=C(O)c1cc(COc2ccc(C(F)(F)F)cc2Cl)ccc1F as the compound, how does the AUC at 24 h read?
Answer: 1070 µM·h

Question: Which AUC at 24 h does the source give for O=C(O)c1cccc(COc2ccc(C(F)(F)F)cc2Cl)c1F here?
Answer: 2150 µM·h
